Laboratory results as given in patent publication US8552053B2, “7-substituted indirubin-3′oximes and their applications” (Centre National de la Recherche Scientifique, priority 2005, dated 2013).
Where two headings read alike, the source gives them in different places.

Tests used:
[1] = target: CDK5/p25 (Homo sapiens, UniProt Q00535); assay: CDK5/p25 kinase assay; assay type: biochemical, mammalian
[2] = tested on: SH-SY5Y cells; assay: SH-SY5Y cell survival, MTS reduction assay; assay type: cell-based, human
Experimental: (§1) SH-SY5Y, IMR-5 and IMR-32 human neuroblastoma cell lines were grown in DMEM medium from (Biowhittaker) plus 2 mM L-glutamine from Eurobio (Courtaboeuf, France) or DMEM already supplemented with 2 mM L-glutamine (Invitrogen, Barcelona, Spain), plus antibiotics and a 10% volume of FCS (Invitrogen, Cergy Pontoise, France or Barcelona, Spain). SH-SY5Y cell lines permanently transfected with pcDNA3/Bcl-2, pcDNA3/Bcl-XL and empty pcDNA3 vectors were grown like their untransfected counterparts. However, Geneticin (G-418) selection was maintained in the growing cultures before the terminal experiments (Ribas and Boix, 2004). In order to induce differentiation, SH-SY5Y cells were cultured on collagen coated plates and treated with 10 μM RA for five days.
(§2) Cell death characterization based on nuclear morphology was assessed by double staining with 0.05 μg/ml bisBenzimide and 25 μg/ml propidium iodide. Cell viability was determined by means of the MTS method. Both procedures have been previously described in detail (Ribas and Boix, 2004). For evaluation of DNA laddering, cell DNA was extracted and electrophoresed in 1.5% agarose gels to evidence the internucleosomal fragmentation typical of apoptosis.
The effects of each indirubin was tested, at a 25 μM final concentration, on the survival of the neuroblastoma SH-SY5Y cell line after 24 h or 48 h exposure.

[3] = tested on: SH-SY5Y cells; assay: SH-SY5Y cell death, LDH release assay; assay type: cell-based, human; settings: IO, 5BIO, 6BIO, 7BIO compared (FIG. 3B)
Experimental: In addition, cell death was estimated 48 h after the addition of each indirubin (25 μM) using the LDH release assay. As MTS reduction is occasionally observed under conditions different from cell death, an independent cell death evaluation procedure was used, the lactate dehydrogenase (LDH) release assay. This assay confirmed the induction of cell death by the indirubins of the invention, despite their overall lack of effects on CDKs and GSK-3.

[4] = tested on: MDA-MB-231 cells; assay: MDA-MB-231 cell proliferation and cell cycle distribution; assay type: cell-based, human
Experimental: MDA-MB-231 cells (derived from hormone-independent breast cancer) were cultured in DMEM supplemented with 10% FCS. For experiments, these cells were seeded in 24-well boxes or in 35 mm Petri dishes at appropriate densities (4.10^4 cells per well for cell growth experiments; 10^5 cells per dish for cell cycle analysis) and exposed to indirubins as indicated.

[5] = tested on: AhR-dependent expression of p27^Kip1; assay: p27Kip1 expression in 5 L and BP8 hepatoma cells (Western blotting); assay type: cell-based, mouse; settings: 10 μM, 24 h
Experimental: Actin Western blotting was used as a loading control. […] Average±s.e. of three determinations. […] Karlsruhe, Institute of Genetics, 76021 Karlsruhe, Germany). […] 6.8, 1 mM EDTA, 2% SDS.

[6] = tested on: 5 L (AhR+/+) and BP8 (AhR−/−) cells; assay: Cell cycle distribution of 5 L and BP8 cells (FACS); assay type: cell-based, mouse; settings: 10 μM, 24 h
[7] = tested on: SH-SY5Y cells; assay: Nuclear morphology, bisBenzimide and propidium iodide staining; assay type: cell-based, human; settings: 24 h; 10 or 25 μM
Experimental: Following double staining of DNA with BisBenzimide and propidium iodide, cells were examined by fluorescence microscopy. Thick arrows: apoptosis (nuclear fragmentation); thin arrows: secondary necrosis; arrow heads: pycnotic nuclei. Scale bar: 20 μm. Cell death characterization based on nuclear morphology was assessed by double staining with 0.05 μg/ml bisBenzimide and 25 μg/ml propidium iodide. Cell viability was determined by means of the MTS method. Both procedures have been previously described in detail (Ribas and Boix, 2004).

[8] = tested on: effector caspase activity (DEVDase); assay: Caspase (DEVDase) assay in SH-SY5Y cells; assay type: cell-based, human; settings: 24 h dose-response; time course at 25 μM
Experimental: The value of control untreated cells is placed at time 0. DEVDase activity was measured as arbitrary fluorescence units. Every point is the mean±s.e. of at least three independent determinations. (B). […] Every point is the mean±s.e. of at least three independent determinations.
(§3) The measurement of caspase activity is based on determining the fluorescence released from the AcDEVDafc synthetic substrate after its direct addition to the culture medium, detergent lysis, and incubation at 37°. This method is devised to be applied to 96 multiwell plates. It allows kinetic determinations of caspase activation and the characterization of multiple drugs simultaneously. (Ribas et al., 2005).

[9] = tested on: SH-SY5Y cells; assay: DNA laddering (internucleosomal fragmentation); assay type: cell-based, human; settings: 25 μM, 24 h
Experimental: as §2

[10] = tested on: wild-type HCT-116 and HCT-116 sub-clones deprived of p53; assay: Survival of wild-type and p53-deprived HCT-116 cells, MTS; assay type: cell-based, human; settings: 24 h
Experimental: Average±s.e. of three determinations. HCT116 human adenocarcinoma cell line were obtained from Dr. Vogelstein (The Howard Hughes Medical Institute, Sidney Kimmel Comprehensive Cancer Center, The Johns Hopkins School of Medicine, Baltimore, Md. 21231, USA). HCT116 cells were cultured in McCoy's 5A (Biowhittaker) supplemented with antibiotics and 10% FCS. General culture conditions were an atmosphere of 5% CO2 and a temperature of 37° C. Culture dishes and other plastic disposable tools were supplied by Corning (Corning, N.Y., USA). Indirubin treatments were performed on exponentially growing cultures at the indicated time and concentrations. Control experiments were carried also using appropriate dilutions of DMSO.

[11] = tested on: SH-SY5Y cells differentiated by retinoic acid; assay: Viability of RA-differentiated versus proliferating SH-SY5Y cells, MTS; assay type: cell-based, human; settings: 24 h; 7BIO 25 μM, STS 1 μM
[12] = tested on: SH-SY5Y cells transfected with pcDNA3/Bcl-2 or pcDNA3/Bcl-XL; assay: Viability of Bcl-2 / Bcl-XL overexpressing SH-SY5Y cells, MTS; assay type: cell-based, human; settings: 7BIO 25 μM, STS 2 μM; 9 and 24 h
[13] = tested on: IMR-5, IMR-32, HL-60 and Jurkat cells; assay: Viability of IMR-5, IMR-32, HL-60 and Jurkat cells, MTS; assay type: cell-based, human; settings: 24 h
Experimental: as §1, with “FIG. 15. […] Every point is the mean±s.e. of three independent experiments with six independent measurements per experiment. […] SH-SY5Y,” for “SH-SY5Y,”, “[…] HL-60 and Jurkat” for “In order to induce differentiation, SH-SY5Y”, “grown in RPMI 1640 medium with 10% FCS” for “cultured on collagen coated plates”, “antibiotics from Invitrogen (Barcelona, Spain).” for “treated with 10 μM RA for five days.”

[14] = tested on: effector caspases (DEVDase activity); assay: Effector caspase activation in IMR-5, IMR-32, HL-60 and Jurkat cells; assay type: cell-based, human; settings: 25 μM, 24 h
Experimental: FIG. 15. […] Every point is the mean±s.e. of three independent experiments with six independent measurements per experiment. […] Bar value is the mean±s.e. of 6 independent determinations.
as §3

[15] = tested on: 5 L (AhR+/+) and BP8 (AhR−/−) cells; settings: 24 h
[16] = tested on: SH-SY5Y cells; assay: SH-SY5Y cell survival, MTS reduction assay; assay type: cell-based, human; remark: listed apart in the source
[17] = tested on: p53; assay: p53 expression, Western blotting; settings: SH-SY5Y cells, 12.5 μM
[18] = tested on: p21^Cip1; assay: p21Cip1 expression, Western blotting; settings: SH-SY5Y cells, 12.5 μM, 12 h
[19] = tested on: cytochome C release; assay: Cytochrome C release from mitochondria; settings: 12.5 μM, 10 h

Sequence of CDK5/p25 (Q00535 whole entry, species assumed): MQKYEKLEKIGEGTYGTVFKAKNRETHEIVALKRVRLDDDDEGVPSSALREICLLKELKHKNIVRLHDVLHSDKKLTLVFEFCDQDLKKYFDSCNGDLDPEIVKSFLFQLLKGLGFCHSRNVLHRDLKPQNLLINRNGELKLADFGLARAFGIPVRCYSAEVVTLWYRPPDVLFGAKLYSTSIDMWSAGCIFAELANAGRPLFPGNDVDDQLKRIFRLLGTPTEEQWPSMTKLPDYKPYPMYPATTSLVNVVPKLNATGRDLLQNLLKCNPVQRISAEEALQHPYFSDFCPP
Sequence of CDK5/p25 (Q15078 99-307 partner limits assumed, species assumed): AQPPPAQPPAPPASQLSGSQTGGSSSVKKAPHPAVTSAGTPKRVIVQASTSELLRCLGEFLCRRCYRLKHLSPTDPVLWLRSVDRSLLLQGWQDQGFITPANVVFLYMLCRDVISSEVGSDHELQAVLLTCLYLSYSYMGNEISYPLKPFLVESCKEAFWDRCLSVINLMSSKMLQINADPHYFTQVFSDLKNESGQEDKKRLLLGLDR

(2′Z,3′E)-7-bromoindirubin-3′-oxime [7BIO]
inhibitory activity on CDK5/p25 (in words) [1]: marginal inhibitory activity | inhibitory activity on CDK5/p25 (in words) ([1]; listed as 24): weak and gradually decreasing inhibitory activity | time required to induce 70% cell death ([2]; 25 μM (FIG. 7)): ≤ 12 h | time to almost complete cell death ([2]; 25 μM (FIG. 7)): ≤ 24 h | effect of Q-VD-Oph on induced cell death ([2]; 25 μM indirubin, 48 h, 10 μM Q-VD-OPh (FIG. 10)): no effect | cell death inducing activity, position 7 halogen / N1-methyl series (MTS) ([2]; 48 h (FIG. 4)): equipotent | cell death (LDH release) [3]: most potent compound | cell cycle distribution ([4]; 24 h, FACS): accumulation in G2/M and reduction of G0/G1 | cell proliferation by direct counting ([4]; 48 h exposure): dose-dependent inhibition of cell proliferation | reversibility of the effect by removal of compound ([4]; medium replaced at 48 h): poorly if at all reversible | AhR-dependent expression of p27^Kip1 [5]: potently enhance | cell cycle distribution of AhR−/− and AhR+/+ cells [6]: striking AhR-dependent accumulation in G0/G1 | nuclear morphology / PI staining [7]: numerous large, unfragmented pycnotic nuclei | activation of caspase activity [8]: remained at the level of control | DNA laddering [9]: no ladder was observed | dose-response curves, wild-type versus p53-deprived HCT-116 [10]: essentially the same | effect of cell differentiation on induced cell death [11]: negligible effect | protection by Bcl-2 / Bcl-XL overexpression [12]: neither Bcl-XL nor Bcl-2 overexpression provided any significant protection | induction of cell death [13]: induced cell death in the same range of concentrations | effector caspase activation (DEVDase activity) [14]: fell consistently below the background | dose-response curves of cell death in 5 L versus BP8 [15]: essentially the same | sensitivity of cell death to the presence of the caspase inhibitor Q-VD-OPh ([16]; 20 μM Q-VD-OPh, MTS 43 h after addition (Table 5)): completely insensitive | concentration required to reduce cell survival (MTS reduction) ([16]; 48 h, IO, 5BIO, 6BIO, 7BIO compared (FIG. 3A)): most potent compound | induction of p53 [17]: insignificant | induction of p21^Cip1 overexpression [18]: negligible effects | release of cytochome C from mitochondria [19]: negligible release
